Measured values taken from patent US12115149B2, “Formulations, methods, kits, and dosage forms” (MedRegen, LLC, priority 2020, dated 2024).
Read-outs that look alike come from different tables or passages of the source.

Assays:
[1] = cited from earlier work
[2] = Degradation of FK506 in a combination of the two APIs; assay type: physicochemical; conditions: combination of the two APIs in solution, earlier attempts; stated as 'may be'
[3] = rat, in vivo, sc; for time by which cleared: SD
Experimental: (§1) All samples were frozen and stored at −70° C. on receipt. The samples were analyzed by liquid chromatography with tandem mass spectral detection.

[4] = pig, in vivo, sc
Experimental: as §1

[5] = PK/PD study of Formulation A s.c. in SD rats; conditions: for absorption lag time after s.c. administration: Formulation A 0.744 ml/kg s.c.
Experimental: as §1

[6] = PK/PD study of Formulation A s.c. in mini pigs; conditions: Formulation A 0.132 ml/kg s.c.
Experimental: as §1

FK506 degraded [2] | time by which cleared [3] | plasma level at 3 hours [3] | blood level at 3 hours [4] | absorption lag time after s.c. administration [5] | time of peak plasma concentration ([5]; Formulation A 0.744 ml/kg s.c. (AMD3100 17.856 mg/kg, FK506 0.372 mg/kg), n=12) | clearance from blood [6] | blood level at 3 hours [6] | Compound | solubility in water [1]
 |  |  |  |  |  |  |  | AMD3100 octahydrochloride hydrate | 22 mg/mL
About 50% | ≤ 12 h | remained at high levels | remained at high levels | no observable lag time | 1 h | cleared rapidly after 12 hours |  | C=CC[C@@H]1/C=C(\C)C[C@H](C)C[C@H](OC)[C@H]2O[C@@](O)(C(=O)C(=O)N3CCCC[C@H]3C(=O)O[C@H](/C(C)=C/[C@@H]3CC[C@@H](O)[C@H](OC)C3)[C@H](C)[C@@H](O)CC1=O)[C@H](C)C[C@@H]2OC [FK506, Tacrolimus] | poor solubility in water
 | ≤ 12 h | remained at high levels |  | no observable lag time |  | cleared rapidly after 12 hours | remained at high levels | c1cc(CN2CCCNCCNCCCNCC2)ccc1CN1CCCNCCNCCCNCC1 [AMD3100] | 
